Among the test systems are UO-31 renal; SF-268 CNS; SK-MEL-28 melanoma; HOP-92 NSCLC; A549 NSCLC; IGROV1 ovarian; KM12 colon; ACHN renal; SNB-19 CNS; SK-MEL-5 melanoma; OVCAR-8 ovarian; COLO 205 colon; OVCAR-3 ovarian; SR leukemia; HT29 colon; PC-3 prostate; T-47D breast; HS 578T breast; NCI/ADR-RES ovarian.
Common to all, as to assay: inhibition of tumour cell growth, NCI panel, 48 h

We go through nine molecules from PubChem BioAssay (NCI).

Each structure is given as a SMILES string.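 Exposure lasted 48 hours, with cells grown in 96-well plates and compounds tested at five concentrations. TGI is the concentration that stops growth completely.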

For the molecule `O=C1c2ccccc2S[C@@H](O)[C@@H]2CCCN12`, the TGI with UO-31 renal was over 100 µM; with SF-268 CNS, over 100 µM; with SK-MEL-28 melanoma, over 100 µM; in the assay on HOP-92 NSCLC it was over 100 µM; in the assay on A549 NSCLC it was over 100 µM; in the assay with IGROV1 ovarian it was 87.9 µM. For the same molecule, the TGI in the assay on KM12 colon, in the assay on ACHN renal, with SNB-19 CNS, with SK-MEL-5 melanoma, in the assay on OVCAR-8 ovarian and with COLO 205 colon was over 100 µM in each case. Further, the TGI with OVCAR-3 ovarian and in the assay with SR leukemia was over 100 µM throughout.
Turning to `O=C1CCC(c2ccccc2)C(O)(C(=O)O)C1` (stereo unspecified), the TGI in the assay on UO-31 renal, with SF-268 CNS, in the assay on SK-MEL-28 melanoma, in the assay with HOP-92 NSCLC, in the assay on A549 NSCLC and with IGROV1 ovarian was over 100 µM in each case. Also, the TGI in the assay on HT29 colon, with KM12 colon, in the assay with ACHN renal, with SNB-19 CNS, with SK-MEL-5 melanoma and in the assay with OVCAR-8 ovarian was over 100 µM throughout. For the same molecule, the TGI in the assay on COLO 205 colon, with OVCAR-3 ovarian and with SR leukemia was over 100 µM throughout.
`Cc1cc(=O)[nH]c(NNC(C#N)c2ccc(O)cc2)n1` (stereo unspecified): the TGI in the assay on UO-31 renal, in the assay with SF-268 CNS, in the assay with SK-MEL-28 melanoma, in the assay on HOP-92 NSCLC, with A549 NSCLC and in the assay on IGROV1 ovarian was over 100 µM throughout. Also, the TGI in the assay with HT29 colon, in the assay with KM12 colon, in the assay on ACHN renal, in the assay on SK-MEL-5 melanoma, in the assay on OVCAR-8 ovarian and in the assay with COLO 205 colon was over 100 µM each time. Besides, the TGI with OVCAR-3 ovarian and with SR leukemia was over 100 µM throughout.
As to `CC1=CC(=O)NP(=O)(Oc2ccc(C)cc2)N1` (stereo unspecified), the TGI with UO-31 renal, with SF-268 CNS, in the assay on SK-MEL-28 melanoma, with HOP-92 NSCLC, in the assay with IGROV1 ovarian and in the assay on HT29 colon was over 100 µM in each case. Also, the TGI in the assay with KM12 colon, in the assay on ACHN renal, with SNB-19 CNS, in the assay with SK-MEL-5 melanoma, with OVCAR-8 ovarian and in the assay with COLO 205 colon was over 100 µM each time. Moreover, the TGI in the assay with OVCAR-3 ovarian and with SR leukemia was over 100 µM throughout.
As to `N#CCCN(c1ccc(/C=C2\N=C(c3ccc(Cl)cc3)OC2=O)cc1)S(=O)(=O)c1ccccc1`, the TGI with UO-31 renal, with SF-268 CNS, in the assay on SK-MEL-28 melanoma, with A549 NSCLC, in the assay on IGROV1 ovarian and with HT29 colon was over 100 µM throughout. Besides, the TGI with KM12 colon, in the assay with ACHN renal, with SNB-19 CNS, in the assay with SK-MEL-5 melanoma, with OVCAR-8 ovarian and in the assay with COLO 205 colon was over 100 µM in each case. Besides, the TGI with OVCAR-3 ovarian and in the assay with SR leukemia was over 100 µM in each case.
Take `CCOC(=O)Cn1sc2ncc([N+](=O)[O-])cc2c1=O`: the TGI in the assay on UO-31 renal is 21.8 µM; with SF-268 CNS, 44.6 µM; in the assay with SK-MEL-28 melanoma, 28.6 µM; in the assay with HOP-92 NSCLC it was 26.9 µM; in the assay with PC-3 prostate it was 28 µM; in the assay on T-47D breast it was 37.5 µM. In addition, the TGI in the assay with HS 578T breast is over 100 µM; with A549 NSCLC, 39.7 µM; in the assay on IGROV1 ovarian it was 25.9 µM; with HT29 colon it was 29.8 µM; with KM12 colon, 34.3 µM; with ACHN renal, 29.5 µM. Also, the TGI was 85.3 µM with SK-MEL-5 melanoma; 30.3 µM in the assay with OVCAR-8 ovarian; 25.6 µM in the assay with COLO 205 colon; 35.5 µM with NCI/ADR-RES ovarian; 33.4 µM with OVCAR-3 ovarian.
With `CC(=O)NC(CCCN)C(=O)NCc1ccccc1` (stereo unspecified), the TGI with UO-31 renal, in the assay on SF-268 CNS, with SK-MEL-28 melanoma, in the assay with HOP-92 NSCLC, in the assay with A549 NSCLC and in the assay on IGROV1 ovarian was over 100 µM in each case. The TGI in the assay with HT29 colon, with KM12 colon, with ACHN renal, with SNB-19 CNS, in the assay on SK-MEL-5 melanoma and in the assay on OVCAR-8 ovarian was over 100 µM each time. Besides, the TGI in the assay with COLO 205 colon and with OVCAR-3 ovarian was over 100 µM in each case.
`COc1ccc(-c2c(C(C)=O)c(-c3ccccc3)n(C3OC(COC(C)=O)C(OC(C)=O)C(OC(C)=O)C3OC(C)=O)c(=S)c2C#N)cc1` (stereo unspecified): the TGI was over 100 µM with SF-268 CNS; over 100 µM in the assay on SK-MEL-28 melanoma; 71.7 µM in the assay with HOP-92 NSCLC; over 100 µM in the assay on T-47D breast; over 100 µM in the assay on A549 NSCLC; over 100 µM with IGROV1 ovarian. Besides, the TGI with HT29 colon, with KM12 colon, in the assay on ACHN renal, in the assay on SNB-19 CNS, in the assay on SK-MEL-5 melanoma and in the assay on OVCAR-8 ovarian was over 100 µM in each case. Further, the TGI with COLO 205 colon, with NCI/ADR-RES ovarian, with OVCAR-3 ovarian and with SR leukemia was over 100 µM each time.
For the molecule `Cc1[nH]c(=O)[nH]c(=S)c1C(=O)NC(C)(CO)CO`, the TGI in the assay with UO-31 renal, in the assay on SF-268 CNS, in the assay on SK-MEL-28 melanoma, in the assay on HOP-92 NSCLC, in the assay with PC-3 prostate and with T-47D breast was over 100 µM throughout. Moreover, the TGI in the assay with HS 578T breast, in the assay on A549 NSCLC, with IGROV1 ovarian, with HT29 colon, in the assay with KM12 colon and in the assay on ACHN renal was over 100 µM in each case. Moreover, the TGI with SNB-19 CNS, in the assay on SK-MEL-5 melanoma, in the assay on OVCAR-8 ovarian, with COLO 205 colon, in the assay with NCI/ADR-RES ovarian and in the assay with OVCAR-3 ovarian was over 100 µM throughout.
